The results in this text go back to US9271963B2, “Selective inhibitors of human corticosteroid synthases” (UNIVERSITAT DES SAARLANDES, priority 2005, dated 2016).

The term IC50 denotes the concentration that inhibits the measured activity by half.

The target of one assay is human CYP17 (Homo sapiens (Human), UniProt P05093). The assay is described as follows: CYP17 inhibition, membrane fraction of E. coli expressing human CYP17. Format: biochemical. The note with it: Table 1, progesterone 2.5 μM; for inhibition at 2.5 µM: inhibitor 2.5 μM, read-out: % Inhib. Human CYP17; for IC50: read-out: IC50 Human CYP17 (values in brackets).
The target of assay [1] is T1, CYP11B1 (Homo sapiens (Human), UniProt P15538). The conditions noted are these: NCI-H295R.
Assay [2] has as its target T1, CYP11B1. The assay can be described thus: cell-based. The note with it: NCI-H295R, read-out: NCI-H295R CYP11B1 RSS % inhibition.
The target of assay [3] is T2, CYP11B2 (Homo sapiens (Human), UniProt P19099). The assay is described as follows: cell-based. The note with it: NCI-H295R.
Another assay deals with human placental CYP19 (Homo sapiens (Human), UniProt P11511). The assay is described as follows: CYP19 (aromatase) inhibition, human placental microsomes. Format: biochemical. The conditions noted are these: Table 1, androstenedione 2.5 μM; for % Inhib. Human CYP19 (values in brackets): inhibitor concentration not given.
Assay [4] has as its system steroid production in H295R cells. The assay is described as follows: cells. It counts as cell-based, human. The note with it: for aldosterone secretion: within 6 hours; for inhibition at 2.5 µM / IC50: Homo sapiens, NCI-H295R; for inhibition at 2.5 µM: inhibitor 2.5 μM.
The target of assay [5] is T2, CYP11B2. The assay is described as follows: Screening test in transgenic fission yeast (S. pombe) expressing human CYP11B2. It counts as cell-based.
For assay [6], the target named is T1, CYP11B1. The assay is described as follows: Inhibition test in V79 MZh11B1 cells (hamster fibroblasts expressing human CYP11B1). Format: cell-based.
For assay [7], the target named is T2, CYP11B2. The assay is described as follows: Inhibition test in V79 MZh11B2 cells (hamster fibroblasts expressing human CYP11B2). Format: cell-based. The conditions noted are these: Table 1; deoxycorticosterone substrate 100 nM; read-out: IC50 value V79 11B2 hCYP11B2.
Where [8] appears, read: read-out: NCI-H295R CYP11B2 B % inhibition.
The mark [9] stands for this setting: read-out: NCI-H295R CYP11B2 DOC % inhibition.
[10] abbreviates: H295R, 6 h incubation, read-out: % inhibition of DHEA production.
Setting [11] is: H295R, 6 h incubation, read-out: % inhibition of aldosterone production.
Setting [12] is: H295R, 6 h incubation, read-out: % inhibition of androstendione production.
Setting [13] is: H295R, 6 h incubation, read-out: % inhibition of cortisol production.
Setting [14] is: Table 1, S. pombe cells expressing human CYP11B2, deoxycorticosterone 100 nM, inhibitor 500 nM, read-out: % Inhib. Human hCYP11B2.
Where [15] appears, read: Table 1, deoxycorticosterone substrate 100 nM, read-out: IC50 value V79 11B1 hCYP11B1.
[16] abbreviates: read-out: IC50 in V79MZh 11B1 cells (CYP11B1 inhibition).

Structures are written as SMILES. Like-named read-outs stand apart in the source and are kept apart here. Where only a bound is given, the exact number is not on record here.

T2 sequence (P19099 25-503): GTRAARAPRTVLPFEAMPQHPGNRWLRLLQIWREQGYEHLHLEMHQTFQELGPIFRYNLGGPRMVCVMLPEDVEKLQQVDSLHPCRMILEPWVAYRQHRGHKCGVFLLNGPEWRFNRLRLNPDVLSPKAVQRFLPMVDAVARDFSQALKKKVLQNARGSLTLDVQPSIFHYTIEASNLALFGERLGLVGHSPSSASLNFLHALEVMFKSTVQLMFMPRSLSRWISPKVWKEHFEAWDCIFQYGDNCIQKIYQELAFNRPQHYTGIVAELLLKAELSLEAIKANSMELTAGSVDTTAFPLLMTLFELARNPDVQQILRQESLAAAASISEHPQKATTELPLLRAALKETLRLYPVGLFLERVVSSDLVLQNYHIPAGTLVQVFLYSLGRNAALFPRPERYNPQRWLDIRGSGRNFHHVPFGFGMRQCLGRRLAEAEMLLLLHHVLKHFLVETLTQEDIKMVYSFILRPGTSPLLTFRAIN
human CYP17, sequence (P05093 whole entry): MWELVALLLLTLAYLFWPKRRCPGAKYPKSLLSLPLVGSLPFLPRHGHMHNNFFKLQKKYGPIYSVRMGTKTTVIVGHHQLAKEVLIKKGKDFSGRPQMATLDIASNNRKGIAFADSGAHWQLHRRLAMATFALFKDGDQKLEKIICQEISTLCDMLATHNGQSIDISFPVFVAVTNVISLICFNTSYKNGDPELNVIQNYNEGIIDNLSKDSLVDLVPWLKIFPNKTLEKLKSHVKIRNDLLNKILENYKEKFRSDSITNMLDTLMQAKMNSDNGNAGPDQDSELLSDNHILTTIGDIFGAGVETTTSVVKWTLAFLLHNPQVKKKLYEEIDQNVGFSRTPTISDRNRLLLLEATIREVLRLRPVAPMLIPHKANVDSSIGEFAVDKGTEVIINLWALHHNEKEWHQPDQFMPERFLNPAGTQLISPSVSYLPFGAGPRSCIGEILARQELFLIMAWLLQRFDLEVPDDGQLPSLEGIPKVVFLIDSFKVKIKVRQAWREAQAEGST
T1 sequence (P15538 25-503): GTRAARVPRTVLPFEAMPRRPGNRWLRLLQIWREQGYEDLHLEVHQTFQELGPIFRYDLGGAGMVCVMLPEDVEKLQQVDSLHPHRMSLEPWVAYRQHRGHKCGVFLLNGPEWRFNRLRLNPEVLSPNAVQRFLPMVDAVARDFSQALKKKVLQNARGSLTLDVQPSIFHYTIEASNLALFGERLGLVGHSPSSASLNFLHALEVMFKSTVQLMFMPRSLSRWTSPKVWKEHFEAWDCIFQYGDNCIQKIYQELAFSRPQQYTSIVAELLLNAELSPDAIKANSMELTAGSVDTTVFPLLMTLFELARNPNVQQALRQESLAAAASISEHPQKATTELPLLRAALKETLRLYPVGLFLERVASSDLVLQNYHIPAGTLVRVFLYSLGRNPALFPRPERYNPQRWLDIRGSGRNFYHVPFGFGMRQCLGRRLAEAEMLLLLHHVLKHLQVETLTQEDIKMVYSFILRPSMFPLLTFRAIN
human placental CYP19, sequence (P11511 whole entry): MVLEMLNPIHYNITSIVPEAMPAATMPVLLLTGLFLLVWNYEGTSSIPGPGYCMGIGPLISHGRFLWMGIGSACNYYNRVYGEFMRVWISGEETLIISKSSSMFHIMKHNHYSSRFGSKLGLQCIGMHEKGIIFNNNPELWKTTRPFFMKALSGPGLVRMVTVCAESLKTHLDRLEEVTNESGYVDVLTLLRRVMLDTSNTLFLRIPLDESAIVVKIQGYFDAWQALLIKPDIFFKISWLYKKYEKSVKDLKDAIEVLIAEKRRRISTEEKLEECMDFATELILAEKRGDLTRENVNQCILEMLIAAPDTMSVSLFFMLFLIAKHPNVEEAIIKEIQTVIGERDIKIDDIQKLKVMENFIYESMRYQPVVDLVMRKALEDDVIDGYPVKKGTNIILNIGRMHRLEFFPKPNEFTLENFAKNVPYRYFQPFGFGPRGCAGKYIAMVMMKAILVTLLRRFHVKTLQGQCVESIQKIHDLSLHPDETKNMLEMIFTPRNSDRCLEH

Consider `c1cncc(-c2ccc3ccccc3c2)c1` [Compound 1, 3-(2-Naphthyl)pyridine], for which the inhibition at 2.5 µM was 40% on human CYP17, 43.4 ± 4.7% on CYP11B1 [2], 45.6 ± 2.2% at CYP11B2 [3] (setting [8]) and 82.9 ± 0.9% at CYP11B2 [3] (setting [9]). In addition, the “influence on CYP11B1 in comparison with fadrozole” value at CYP11B1 [1] is “clearly lower extent”.
On to `COc1ccc2cc(-c3cccnc3)ccc2c1` [Compound 2, 3-(6-Methoxy-2-naphthyl)pyridine], for which the IC50 at human CYP17 was 667 nM; against human placental CYP19 it was 586 nM; in assay [4] (H295R, 6 h incubation, read-out: IC50 of DHEA production), under 1 nM; in assay [4] (H295R, 6 h incubation, read-out: IC50 of aldosterone production) it was 963 nM; in assay [4] (H295R, 6 h incubation, read-out: IC50 of androstendione production), under 1 nM; in assay [4] (H295R, 6 h incubation, read-out: IC50 of cortisol production), under 1 nM. The “cortisol production compared with aldosterone production” value in [4] (H295R model) is listed as “cortisol production is inhibited more strongly than the aldosterone production”. The “androsterone production (so in the source)” value in assay [4] (H295R, 6 h) is “inhibited only to a low extent”. In addition, the aldosterone secretion entry in [4] (H295R) is on record as “significant concentration-dependent decrease”. Moreover, the inhibition at 2.5 µM in assay [4] (setting [10]) was 84.5 ± 2%; in [4] (setting [11]), 56.4 ± 3.5%; in assay [4] (setting [12]), 84.6 ± 2%; in assay [4] (setting [13]), 78.6 ± 5.4%; at CYP11B1 [2] it was 48.5 ± 2.9%; at CYP11B2 [3] (setting [8]), 49.5 ± 2.4%. Moreover, the inhibition at 2.5 µM on CYP11B2 [3] (setting [9]) came to 81.4 ± 6.6%. For the same compound, the “influence on CYP11B1 in comparison with fadrozole” value at CYP11B1 [1] is “clearly lower extent”.
For `Oc1ccc2cc(-c3cccnc3)ccc2c1` [Compound 3, 6-Pyridin-3-yl-2-naphthol], on CYP11B2 [5] (setting [14]), the inhibition at 0.5 µM was 88%. Besides, the IC50 is 715 nM on CYP11B1 [6] (setting [15]) and 23 nM at CYP11B2 [7]. Also, on human CYP17, the inhibition at 2.5 µM is 65%. The “% Inhib. Human CYP19 (values in brackets)” value (shortened to “% Inhib. Human CYP19”) at human placental CYP19 is “[61] %”.
The matching figures for `Brc1ccc2cc(-c3cccnc3)ccc2c1` [Compound 4, 3-(6-Bromo-2-naphthyl)pyridine]: 85%, 899 nM, 15 nM, 46% and “[33] %”.
With `CCOc1ccc2cc(-c3cccnc3)ccc2c1` [Compound 5, 3-(6-Ethoxy-2-naphthyl)pyridine], the inhibition at 0.5 µM at CYP11B2 [5] (setting [14]) stood at 86%. Further, the IC50 at CYP11B1 [6] (setting [15]) was determined as 883 nM; on CYP11B2 [7], 12 nM; on human placental CYP19 it was 6640 nM. Moreover, the inhibition at 2.5 µM on human CYP17 amounted to 53%.
For `N#Cc1ccc2cc(-c3cccnc3)ccc2c1` [Compound 8, 6-Pyridin-3-yl-2-naphthonitrile], the inhibition at 0.5 µM on CYP11B2 [5] (setting [14]) is 98%. The half-maximal inhibitory concentration (IC50) on CYP11B1 [6] (setting [15]) was 691 nM; at CYP11B2 [7], 3 nM; on human CYP17, 686 nM. Further, at human placental CYP19, the “% Inhib. Human CYP19” value is “[44] %”.
With `COc1ccc2cc(-c3cccnc3)ccc2c1Cl` [Compound 9, 3-(5-Chloro-6-methoxy-2-naphthyl)pyridine], on CYP11B2 [5] (setting [14]), the inhibition at 0.5 µM amounted to 86%. The results for the IC50 on CYP11B1 [6] (setting [15]), on CYP11B2 [7] and against human placental CYP19 were 569 nM, 13 nM and 1800 nM, respectively. On human CYP17, the inhibition at 2.5 µM was 32%.
With `COc1ccc2cc(-c3cccnc3)ccc2c1Br` [Compound 10, 3-(5-Bromo-6-methoxy-2-naphthyl)pyridine], the inhibition at 0.5 µM on CYP11B2 [5] (setting [14]) was determined as 68%. Besides, the half-maximal inhibitory concentration (IC50) at CYP11B1 [6] (setting [15]) turned out to be 1530 nM; on CYP11B2 [7], 33 nM; against human placental CYP19 it was 9110 nM. Also, the inhibition at 2.5 µM at human CYP17 was determined as 38%.
Regarding `COc1ccc2c(Cl)c(-c3cccnc3)ccc2c1Cl` [Compound 12, 3-(1,5-Dichloro-6-methoxy-2-naphthyl)pyridine], the inhibition at 0.5 µM on CYP11B2 [5] (setting [14]) was 82%. Besides, the IC50 at CYP11B1 [6] (setting [15]) came out at 1540 nM; on CYP11B2 [7] it was 28 nM; at human CYP17 it was 233 nM; on human placental CYP19 it was 970 nM.
Take `COc1ccc2ccc(-c3cccnc3)cc2c1` [Compound 13, 3-(7-Methoxy-2-naphthyl)pyridine]: on CYP11B2 [5] (setting [14]), the inhibition at 0.5 µM was found to be 46%.
As to `COc1ccc2ccc(-c3cccnc3)c(Cl)c2c1` [Compound 14, 3-(1-Chloro-7-methoxy-2-naphthyl)pyridine], the inhibition at 0.5 µM on CYP11B2 [5] (setting [14]) is 85%. The 50% inhibitory concentration (IC50) at CYP11B1 [6] (setting [15]) is 771 nM; on CYP11B2 [7], 29 nM; at human CYP17, 27 nM. For the same compound, the “% Inhib. Human CYP19” value on human placental CYP19 is “[65] %”.
For `COc1cc2ccccc2cc1-c1cccnc1` [Compound 15, 3-(3-Methoxy-2-naphthyl)pyridine], the inhibition at 0.5 µM at CYP11B2 [5] (setting [14]) stood at 38%.
On to `COC(=O)c1ccc2cc(-c3cccnc3)ccc2c1` [Compound 16, Methyl-6-pyridin-3-yl-2-naphthoate], for which, at CYP11B2 [5] (setting [14]), the inhibition at 0.5 µM came out at 66%. For the same compound, the IC50 on CYP11B1 [6] (setting [15]) was determined as 10500 nM; at CYP11B2 [7], 73 nM; against human placental CYP19 it was 1250 nM. The inhibition at 2.5 µM on human CYP17 came out at 12%.
As to `c1cncc(-c2cnc3ccccc3c2)c1` [Compound 19, 3-Pyridin-3-ylquinoline], the inhibition at 0.5 µM at CYP11B2 [5] (setting [14]) came out at 40%.
As for `c1cncc(-c2ccc3ccccc3n2)c1` [Compound 20, 2-Pyridin-3-ylquinoline], the inhibition at 0.5 µM at CYP11B2 [5] (setting [14]) came out at 53%.
Take `c1ccc2cc(-n3ccnc3)ccc2c1` [Compound 23, 1-(2-Naphthyl)-1H-imidazole]: the inhibition at 0.5 µM on CYP11B2 [5] (setting [14]) is 80%. The IC50 on CYP11B1 [6] (setting [15]) is 1050 nM; on CYP11B2 [7], 38 nM. Besides, the inhibition at 2.5 µM on human CYP17 was determined as 13%.
As to `COc1cc2ccccc2cc1-n1ccnc1` [Compound 24, 1-(3-Methoxy-2-naphthyl)-1H-imidazole], at CYP11B2 [5] (setting [14]), the inhibition at 0.5 µM was found to be 86%. For the same compound, the IC50 on CYP11B1 [6] (setting [15]) worked out at 5020 nM; at CYP11B2 [7] it was 40 nM; on human placental CYP19, 129 nM. The inhibition at 2.5 µM on human CYP17 amounted to 4%.
Regarding `c1ccc2cc(-c3c[nH]cn3)ccc2c1` [Compound 27, 4(5)-(2-Naphthyl)-1H-imidazole], on CYP11B2 [5] (Table 1, S. pombe cells expressing human CYP11B2, deoxycorticosterone 100 nM, inhibitor 500 nM), the “% Inhib. Human hCYP11B2” value stood at 41%. Also, the half-maximal inhibitory concentration (IC50) on CYP11B1 [6] (setting [15]) and on CYP11B1 [6] (setting [16]) was 206 nM in each case.
In the case of `c1ccc2cc(-c3cnco3)ccc2c1` [Compound 29, 5-(2-Naphthyl)-1,3-oxazole], the “CYP11B2 inhibition in S. pombe” value on CYP11B2 [5] is given as “very low”. In addition, the inhibition at 0.5 µM on CYP11B2 [5] (setting [14]) was determined as 16%. The IC50 was 805 nM on CYP11B1 [6] (setting [15]) and 206 to 805 nM at CYP11B1 [6] (setting [16]).
On to `COc1ccc2cc(-c3cncnc3)ccc2c1` [Compound 30, 5-(6-Methoxy-2-naphthyl)pyrimidine], for which, on CYP11B2 [5] (setting [14]), the inhibition at 0.5 µM amounted to 46%.
Regarding `C1=C(n2ccnc2)CCc2ccccc21` [Compound 45, 1-(3,4-Dihydronaphthalene-2-yl)-1H-imidazole], the “CYP11B2 inhibition in S. pombe” value on CYP11B2 [5] is reported as “very low”. For the same compound, the inhibition at 0.5 µM on CYP11B2 [5] (Table 2, S. pombe cells expressing human CYP11B2, deoxycorticosterone 100 nM, inhibitor 500 nM, read-out: % Inhibition Human hCYP11B2) was 34%.
For the compound `COc1ccc2c(c1)CCC(n1ccnc1)=C2` [Compound 46, 1-(6-Methoxy-3,4-dihydronaphthalene-2-yl)-1H-imidazole], at CYP11B2 [5], the “CYP11B2 inhibition in S. pombe” value was “very low”. Further, the inhibition at 0.5 µM on CYP11B2 [5] (read-out: % Inhibition Human hCYP11B2) stood at 35%. In addition, the 50% inhibitory concentration (IC50) on CYP11B1 [6] (setting [16]) was 206 to 805 nM; on CYP11B1 [6] (read-out: IC50 value V79 11B1 hCY11B1) it was 763 nM.
With `CC(=O)N1CCN(c2ccc(OCC3COC(Cn4ccnc4)(c4ccc(Cl)cc4Cl)O3)cc2)CC1` (stereo not shown) [Ketoconazole, reference compound], in [4] (H295R), the aldosterone secretion entry is on record as “significant concentration-dependent decrease”. The IC50 in assay [4] (6 h, read-out: IC50 of DHEA production) was determined as 51.8 nM; in [4] (6 h, read-out: IC50 of aldosterone production), 13100 nM; in [4] (6 h, read-out: IC50 of androstendione production), 59.6 nM; in assay [4] (6 h, read-out: IC50 of cortisol production), 155 nM. Further, the inhibition at 2.5 µM was found to be 94.4 ± 0.6% in assay [4] (setting [10]), 33.3 ± 3.3% in [4] (setting [11]), 89.2 ± 1.2% in assay [4] (setting [12]) and 88.1 ± 1% in assay [4] (setting [13]).
